Data published in patent publication US10173999B2, “Cyclic amine derivative and pharmaceutical use thereof” (Toray Industries, Inc., priority 2015, dated 2019).
Entries after “also recorded” stand apart in the source; their conditions may differ. Counter-ions that a name gives are not always drawn.

Test system: fibromyalgia syndrome model rats
Experiment: Rat fibromyalgia syndrome model (acidic saline), allodynia by von Frey filament
Format: in vivo
Conditions: for allodynia (50% response threshold) vs acidic saline+distilled water group: Day 7, pregabalin 10 mg/kg
Method: To prepare a fibromyalgia syndrome model rat (Sluka et al., Journal of Pharmacology and Experimental Therapeutics, vol. 302, p. 1146-1150, 2002; Nagakura et al., Pain, vol. 146, p. 26-33, 2009; Sluka et al., Pain, vol. 146, p. 3-4, 2009), which is generally employed widely in basic research for fibromyalgia syndrome, acidic saline (100 μL) adjusted to pH 4.0 was intramuscularly injected to the gastrocnemius muscle of the right hind paw of Crl: CD(SD) rat (6 to 7 weeks old, male; from CHARLES RIVER LABORATORIES JAPAN, INC.) under continuous inhalation anesthesia with isoflurane, twice (once in each day of Day 1 and Day 6, wherein Day 1 was the date on which the acidic saline was initially administrated). The rats thus prepared were raised in a breeding room controlled at an indoor temperature of 21 to 25° C. and an indoor humidity of 40 to 70% under the conditions of voluntary intake of food and water. In the same manner, rats to which physiological saline in place of acidic saline was intramuscularly injected were raised. The rats thus raised and not afflicted with fibromyalgia syndrome (“physiological saline+distilled water” group in FIG. 13) were also used in the experiment.
Seven days after the initial administration of acidic saline, allodynia in each rat was measured. […] Note that, measurement of allodynia was performed by use of a von Frey filament (from North Coast Medical) in accordance with the method described in a known literature (Chaplan et al., Journal of Neuroscience Methods, vol. 53, p. 55-63, 1994).
The fibromyalgia syndrome model rats thus obtained are divided into groups such that the 50% response threshold (mean value of the right hind paw and the left hind paw) of the individual groups became equal, and a test compound was administered to the fibromyalgia syndrome model rats on Day 7 after the initial administration of acidic saline.
The compound of Example 11 (0.1 to 10 mg/kg) was dissolved in distilled water and then orally administered to fibromyalgia syndrome model rats (“acidic saline+the compound of Example 11” in FIG. 13). Pregabalin serving as a positive control (10 mg/kg; from KEMPROTEC) was dissolved in distilled water and then orally administered (“acidic saline+pregabalin” in FIG. 13). As a control, distilled water was orally administered to fibromyalgia syndrome model rats (“acidic saline+distilled water” in FIG. 13). Furthermore, distilled water was orally administered to rats not afflicted with fibromyalgia syndrome (“physiological saline+distilled water” in FIG. 13). One hour and three hours after the oral administration, allodynia in individual rats was measured to evaluate an analgesic action. At this time, the 50% response threshold value in the measurement of allodynia before oral administration of the test compound on Day 7 after initial administration of acidic saline was defined as the pre-value.
To prepare a fibromyalgia syndrome model rat (Sluka et al., Journal of Pharmacology and Experimental Therapeutics, vol. 302, p. 1146-50, 2002; Nagakura et al., Pain, vol. 146, p. 26-33, 2009; Sluka et al., Pain, vol. 146, p. 3-4, 2009), which is generally employed widely in basic research for fibromyalgia syndrome, acidic saline (100 μL) adjusted to pH 4.0 was intramuscularly injected to the gastrocnemius muscle of the right hind paw of Slc: (SD) rats (6 to 7 weeks old, male; from Japan SLC, Inc.) under continuous inhalation anesthesia with isoflurane, twice (once in each of Day 1 and Day 6, wherein Day 1 was the initial administration date of the acidic saline). The rats thus prepared were raised in a breeding room controlled at an indoor temperature of 21 to 25° C. and an indoor humidity of 40 to 70% under the conditions of voluntary intake of food and water. In the same manner, rats to which physiological saline was intramuscularly injected in place of acidic saline were raised. […]

SMILES | allodynia (50% response threshold) vs acidic saline+distilled water group (Comparative Example 8: oral, Comparative Example 1 0.1 to 1 mg/kg, 1, 2 and 3 h after dosing, hydrochloride) | persistence of analgesic action (oral administration) | allodynia (50% response threshold) vs acidic saline+distilled water group (Example 15: oral, Example 11 0.1 to 10 mg/kg, 1 and 3 h after dosing) | time the analgesic action lasted after oral administration (oral administration)
CN(C)C1CCN(C(=O)CCc2nccn2C)CC1 [Comparative Example 1, 1-(4-(dimethylamino)piperidin-1-yl)-3-(1-methyl-1H-imidazol-2-yl)propan-1-one hydrochloride] | statistically significantly improved; also recorded: statistically significant analgesic action | tended to significantly decrease 3 hours after oral administration | – | –
CN(C)C1CCN(C(=O)C[C@H](O)c2nccn2C)CC1 [Example 11, (S)-1-(4-(dimethylamino)piperidin-1-yl)-3-hydroxy-3-(1-methyl-1H-imidazol-2-yl)propan-1-one] | – | – | statistically significantly improved; also recorded: statistically significant analgesic action | 3 h
